Measured values from ChEMBL document CHEMBL4321804, “Myrmenaphthol A, Isolated from a Hawaiian Sponge of the Genus Myrmekioderma” (J Nat Prod, 2019).
In brackets after ≈: the same amount, converted by molar mass. Activity calls are given as the source filed them. No cut-off for these calls is given here.

How the values were obtained:
[1] = target: T1, Estrogen receptor (Homo sapiens) (UniProt P03372); test: Antagonist activity at 17-beta-estradiol-stimulated GST-tagged ER-alpha ligand binding domain (unknown origin) assessed as fluorescein PGC1a coactivator peptide recruitment incubated up to 24 hrs by LanthaScreen TR-FRET co-regulator assay
T1 sequence (whole entry): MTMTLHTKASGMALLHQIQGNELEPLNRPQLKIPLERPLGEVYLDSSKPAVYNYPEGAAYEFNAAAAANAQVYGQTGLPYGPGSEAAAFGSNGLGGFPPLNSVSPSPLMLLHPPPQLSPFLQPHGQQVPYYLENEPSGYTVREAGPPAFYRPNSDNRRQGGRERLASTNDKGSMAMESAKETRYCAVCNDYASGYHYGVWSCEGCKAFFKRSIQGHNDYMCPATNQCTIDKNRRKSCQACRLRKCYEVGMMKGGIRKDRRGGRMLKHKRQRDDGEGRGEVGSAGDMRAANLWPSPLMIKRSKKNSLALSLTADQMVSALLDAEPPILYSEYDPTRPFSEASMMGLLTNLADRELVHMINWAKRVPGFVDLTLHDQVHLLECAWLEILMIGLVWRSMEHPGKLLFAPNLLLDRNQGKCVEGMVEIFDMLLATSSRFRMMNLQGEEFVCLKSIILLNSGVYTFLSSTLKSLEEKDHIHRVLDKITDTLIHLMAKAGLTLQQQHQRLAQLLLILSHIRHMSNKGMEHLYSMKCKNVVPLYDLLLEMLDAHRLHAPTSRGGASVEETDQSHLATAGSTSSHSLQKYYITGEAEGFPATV

[2] = target: T1, Estrogen receptor (Homo sapiens); test: Agonist activity at GST-tagged ER-alpha ligand binding domain (unknown origin) assessed as fluorescein PGC1a coactivator peptide recruitment incubated up to 24 hrs by LanthaScreen TR-FRET co-regulator assay
[3] = target: T1, Estrogen receptor (Homo sapiens); test: Inhibition of 17-beta-estradiol-stimulated human ER alpha-binding domain at 100 uM by LanthaScreen TR-FRET coregulator assay
P388 = test: Cytotoxicity against mouse P388 cells incubated for 72 hrs by MTT assay; assay type: functional, cell-based; conditions: P388, 72 h
Estrogen receptor = target: T2, Estrogen receptor (Homo sapiens, UniProt P03372); test: Displacement of [3H]-estradiol from human recombinant estrogen receptor expressed in insect cells incubated for 17 hrs by radioactive receptor binding assay
T2 sequence (P03372 whole entry): T1 sequence (whole entry)

HeLa = test: Cytotoxicity against human HeLa cells incubated for 72 hrs by MTT assay; assay type: functional, cell-based

inhibition [1]	Activity [2]	inhibition [3]	IC50 (Estrogen receptor)	SMILES	IC50 (P388)	IC50 (HeLa)
inactive	inactive	30%		C/C=C1/C(=O)C(O)=C2c3ccc4ccc(O)cc4c3CC[C@@]21C		
inactive	inactive	30%	10 nM	C[C@@H]1C[C@@]12c1ccc3c(ccc4ccc(O)cc43)c1C[C@@H]2O	4.5 µg/mL (≈ 15.5 µM)	0.4 µg/mL (≈ 1.38 µM)
